Experimental data taken from article PMC7551609 (Viruses, 2020).
“Also recorded” adds a separate entry of the source. Where a name gives a salt, the structure may show the parent alone. Read-outs that look alike come from different tables or passages of the source.

Columns and labels:
ZIKV DAKAR B11514 = test system: ZIKV DAKAR B11514; set-up: method as in ref 32, 34 = [32]; conditions: ZIKV DAKAR B11514, Vero cells; cited from earlier work
[1] = MTT cell viability in A549 cells; type: cell-based, human; conditions: human, highest concentration used 50.00 µM, sentence also cites [17]
ZIKV MR-766 strain = assay: Viral inhibition assay, post-treatment, old World strain, Vero cells; type: cell-based, Zika virus; conditions: for inhibitor category based on SI-MTT and SI-XTT / inhibitor category based on SI-MTT / inhibitor category based on SI-XTT: ZIKV MR-766, Vero; for EC50 / MIC: Zika virus; for EC50: old World ZIKV MR-766, Vero cells, post-treatment; for MIC: old World ZIKV MR-766 strain, read-out: MR766 MIC (maximum effective concentration)
[2] = XTT cell proliferation assay in Vero cells; type: cell-based, African green monkey; conditions: African green monkey, non-infected Vero cells, 36 h post-treatment
[3] = XTT cell proliferation in A549 cells; type: cell-based, human; conditions: human, highest concentration used 50.00 µM, sentence also cites [17]
ZIKV Paraiba/2015 [4] = assay: Viral inhibition assay, pre-treatment (prophylactic), Vero cells; type: cell-based, Zika virus; conditions: for MIC / EC50: Zika virus; for MIC: read-out: Pre-treatment MIC (maximum effective concentration); for EC50: ZIKV Paraiba/2015, Vero cells, pre-treatment 12 h before infection
ZIKV PRVABC59 strain = assay: Viral inhibition assay, post-treatment, new World strain, Vero cells; type: cell-based, Zika virus; conditions: for inhibitor category based on SI-MTT and SI-XTT / inhibitor category based on SI-MTT / inhibitor category based on SI-XTT: ZIKV PRVABC59, Vero; for EC50 / MIC: Zika virus; for EC50: new World ZIKV PRVABC59, Vero cells, post-treatment, 48 h; for MIC: new World ZIKV PRVABC59, read-out: PRVABC59 MIC (maximum effective concentration)
ZIKV Paraiba/2015 [5] = assay: Viral inhibition assay, post-infection treatment, Vero cells; type: cell-based, Zika virus; conditions: for EC50: ZIKV Paraiba/2015, Vero cells, post-infection treatment, 36 h; for MIC: read-out: Post-treatment MIC (maximum effective concentration); for inhibitor category based on SI-MTT and SI-XTT / inhibitor category based on SI-MTT / inhibitor category based on SI-XTT: post-treatment, Paraiba/2015, Vero
[6] = MTT cell viability assay in Vero cells; type: cell-based, African green monkey; conditions: African green monkey, non-infected Vero cells, 36 h post-treatment
ZIKV PRVABC59 [7] = conditions: ZIKV PRVABC59, Vero cells; cited from earlier work
ZIKV KX197192.1 strain = test system: ZIKV KX197192.1 strain; set-up: method as in ref 32, 34 = [32]; conditions: Huh7 cells; cited from earlier work
ZIKV MR-766 = conditions: ZIKV MR-766, Vero cells; cited from earlier work
ZIKV Paraiba/2015 [8] = assay: Viral inhibition assay, post-treatment, human A549 cells; type: cell-based, Zika virus; conditions: for inhibitor category based on SI-MTT and SI-XTT: Paraiba/2015, A549 cells; for MIC / EC50: Zika virus; for MIC: in Homo sapiens, read-out: A549 cells MIC (maximum effective concentration); for EC50: ZIKV Paraiba/2015, A549 cells, post-treatment, 36 h
ZIKV Paraiba/2015 [9] = assay: Viral inhibition assay, co-treatment, Vero cells; type: cell-based, Zika virus; conditions: for Co-treatment MIC (maximum effective concentration): Vero cells, ZIKV Paraiba/2015, co-treatment; for inhibitor category based on SI-MTT / inhibitor category based on SI-MTT and SI-XTT / inhibitor category based on SI-XTT: co-treatment, Paraiba/2015, Vero
ZIKV Paraiba/2015 [10] = assay: Growth kinetics inhibition assay (infectious viral progeny), Vero cells; type: cell-based, Zika virus
ZIKV-MEX-2-81 = conditions: cited from earlier work
ZIKV SL1602 strain = conditions: ZIKV SL1602, Vero cells; cited from earlier work
[11] = test system: ZIKV cocktail of MR-766, FSS13025, and MEX-2-81 strains; conditions: JEG-3 and HBME cells; cited from earlier work
ZIKV MEX_I_7 strain = conditions: ZIKV MEX_I_7, Huh7, HeLa and HAEC cells; cited from earlier work
ZIKV PRVABC59 [12] = test system: ZIKV PRVABC59; set-up: method as in ref 22 = [22]; conditions: ZIKV PRVABC59, Huh-7 cells; cited from earlier work
ZIKV PRVABC59 [13] = test system: ZIKV PRVABC59; set-up: method as in ref 22 = [22]; conditions: ZIKV PRVABC59, U251 cells; cited from earlier work
ZIKV PRVABC59 [14] = test system: ZIKV PRVABC59; set-up: method as in ref 22 = [22]; conditions: ZIKV PRVABC59, SF268 cells; cited from earlier work
ZIKV FB-GWUH-2016 = test system: ZIKV FB-GWUH-2016; set-up: method as in ref 27 = [27]; conditions: ZIKV FB-GWUH-2016, RPE cells; cited from earlier work
[15] = test system: ZIKV cocktail of MR-766, FSS13025, and MEX-2-81; conditions: JEG-3 cells, ZIKV cocktail of MR-766, FSS13025, MEX-2-81; cited from earlier work
[16] = pre-treatment, Paraiba/2015, Vero
[17] = 0.1, 1, 10 EC50, all time points (24, 48, 72 h post-treatment), MOI 0.1
[18] = 1 EC50, all the analyzed times, may be caused by toxicity

Row | SMILES | CC50 [1] | EC50 (ZIKV MR-766 strain) | MIC (ZIKV MR-766 strain) | CC50 at 36 h ([2]; confluent monolayers) | CC50 [3] | MIC (ZIKV Paraiba/2015 [4]) | EC50 (ZIKV Paraiba/2015 [4]) | inhibitor category based on SI-XTT (ZIKV Paraiba/2015 [4]; [16]) | EC50 (ZIKV PRVABC59 strain) | MIC (ZIKV PRVABC59 strain) | EC50 (ZIKV Paraiba/2015 [5]) | EC50 (ZIKV Paraiba/2015 [5]; Zika virus, Vero) | MIC (ZIKV Paraiba/2015 [5]; Zika virus) | inhibitor category based on SI-MTT and SI-XTT (ZIKV Paraiba/2015 [5]) | CC50 at 36 h ([6]; confluent monolayers) | inhibitor category based on SI-MTT and SI-XTT (ZIKV Paraiba/2015 [8]) | MIC (ZIKV Paraiba/2015 [8]) | EC50 (ZIKV Paraiba/2015 [8]) | Co-treatment MIC (maximum effective concentration) (ZIKV Paraiba/2015 [9]) | inhibitor category based on SI-MTT (ZIKV Paraiba/2015 [9]) | other results
1 | O=c1cnn([C@@H]2O[C@H](CO)[C@@H](O)[C@H]2O)c(=O)[nH]1 [Azauridine, 6-azauridine] | > 50 µM | 0.76 µM | < 3.7 µM | > 1350 µM | > 50 µM | > 100 µM | 64.5 µM | weakest | 1.46 µM | < 11.1 µM | 4.29 µM | 3.72 µM | > 100 µM | moderate to weak | 156 µM | moderate | < 1.23 µM | 0.44 µM | < 100.00 µM | weak | EC50 (ZIKV DAKAR B11514): 1.5 µM; inhibitor category based on SI-MTT and SI-XTT (ZIKV MR-766 strain): moderate; inhibitor category based on SI-MTT and SI-XTT (ZIKV Paraiba/2015 [4]; [16]): weak; inhibitor category based on SI-MTT and SI-XTT (ZIKV PRVABC59 strain): moderate; EC50 (ZIKV PRVABC59 [7]): 0.61 µM; EC50 (ZIKV KX197192.1 strain): 2.3 µM; EC50 (ZIKV MR-766): 0.98 µM; inhibitor category based on SI-MTT and SI-XTT (ZIKV Paraiba/2015 [9]): weak; effect on production of infectious viral progeny (viral titers) (ZIKV Paraiba/2015 [10]; [17]): dose-dependent inhibitory effect
2 | COc1c(C)c2c(c(O)c1C/C=C(\C)CCC(=O)O)C(=O)OC2 [Mycophenolic acid] | > 50 µM | 0.15 µM | < 1.23 µM | > 1350 µM | > 50 µM | > 100 µM | 7.58 µM | potent | 0.22 µM | < 1.23 µM | 4.26 µM | 4.34 µM | > 100 µM | moderate to weak | 275 µM | weak | < 11.1 µM | 0.65 µM | < 11.10 µM | weak | inhibitor category based on SI-MTT and SI-XTT (ZIKV MR-766 strain): most potent; also recorded: potent; EC50 (ZIKV-MEX-2-81; ZIKV MEX-2-81, U2OS cells): 0.4 µM; EC50 (ZIKV SL1602 strain): 0.42 µM; inhibitor category based on SI-MTT (ZIKV Paraiba/2015 [4]; [16]): Potent; also recorded: moderate; inhibitor category based on SI-MTT and SI-XTT (ZIKV PRVABC59 strain): potent; EC50 (ZIKV PRVABC59 [7]): 0.14 µM; EC50 (ZIKV MR-766): 0.11 µM; inhibitor category based on SI-MTT and SI-XTT (ZIKV Paraiba/2015 [9]): weak; EC50 [11]: 0.1 µM; EC50 (ZIKV MEX_I_7 strain): < 2 µM; effect on production of infectious viral progeny (viral titers) (ZIKV Paraiba/2015 [10]; [17]): dose-dependent inhibitory effect
3 | NCC(=O)Nc1ccc(-n2nc(C(F)(F)F)cc2-c2ccc3c(ccc4ccccc43)c2)cc1 [OSU-03012] | > 50 µM | 0.81 µM | < 11.1 µM | – | > 50 µM | < 3.7 µM | 0.93 µM | highest potent | 1.68 µM | > 11.1 µM | 8.4 µM | 6.85 µM | < 33.3 µM | weakest | – | moderate | < 1.23 µM | 0.21 µM | > 100.00 µM | weak | inhibitor category based on SI-MTT (ZIKV MR-766 strain): weak; inhibitor category based on SI-XTT (ZIKV MR-766 strain): moderate; CC50 at 36 h [2]: 132 µM; EC50 (ZIKV PRVABC59 [12]): 0.82 to 0.88 µM; EC50 (ZIKV-MEX-2-81; ZIKV-MEX-2-81, U2OS cells): 0.9 µM; inhibitor category based on SI-MTT (ZIKV Paraiba/2015 [4]; [16]): moderate; inhibitor category based on SI-MTT (ZIKV PRVABC59 strain): weak; inhibitor category based on SI-XTT (ZIKV PRVABC59 strain): moderate; inhibitor category based on SI-MTT (ZIKV Paraiba/2015 [5]): weak; inhibitor category based on SI-XTT (ZIKV Paraiba/2015 [5]): weak; CC50 at 36 h [6]: 6.39 µM; EC50 (ZIKV PRVABC59 [13]): 0.84 µM; EC50 (ZIKV Paraiba/2015 [9]; Zika virus, Vero): 1.77 µM; inhibitor category based on SI-XTT (ZIKV Paraiba/2015 [9]): potent; effect on production of infectious viral progeny (viral titers) (ZIKV Paraiba/2015 [10]; [18]): Complete inhibition; EC50 (ZIKV PRVABC59 [14]): 1.18 µM
4 | COC1=CC(c2cc3ccccc3[nH]2)=N/C1=C\c1[nH]c(C)cc1C [Obatoclax, Obatoclax mesylate] | > 50 µM | 0.37 µM | < 1.23 µM | 60.4 µM | > 50 µM | < 11.1 µM | 2.96 µM | – | 0.41 µM | < 1.23 µM | 0.63 µM | 0.58 µM | < 0.01 µM | moderate to weak | 17.6 µM | weak | < 1.23 µM | 0.64 µM | < 3.70 µM | Potent | EC50 (ZIKV FB-GWUH-2016): 0.04 µM; inhibitory activity [15]: did not exhibit inhibitory activity; inhibitor category based on SI-MTT (ZIKV MR-766 strain): weak; inhibitor category based on SI-XTT (ZIKV MR-766 strain): moderate; inhibitor category based on SI-MTT (ZIKV Paraiba/2015 [4]; [16]): moderate; inhibitor category based on SI-MTT (ZIKV PRVABC59 strain): weak; inhibitor category based on SI-XTT (ZIKV PRVABC59 strain): potent; inhibitor category based on SI-MTT (ZIKV Paraiba/2015 [5]): weak; inhibitor category based on SI-XTT (ZIKV Paraiba/2015 [5]): potent; inhibitor category based on SI-XTT (ZIKV Paraiba/2015 [9]): potent; effect on production of infectious viral progeny (viral titers) (ZIKV Paraiba/2015 [10]; [18]): Complete inhibition
